# Laboratory results from the NIST ThermoML archive (doi:10.1016/j.jct.2015.12.023).
# Numbers after ± are expanded uncertainties.
# Experiment: mn = molality of the nth substance listed, in mol/kg
# Conditions: 100 kPa, Liquid; for speed of sound: Frequency=3 MHz, Sing-around technique in a fixed-path interferometer; for mass density: Vibrating tube method
compound,measurement,setting,value
CCCC[N+](CCCC)(CCCC)CCCC.[I-] [tetrabutylammonium iodide] + O,speed of sound,"288.15 K, m1 = 0.01",1468.9 ± 1.3 m/s
same,speed of sound,"288.15 K, m1 = 0.02",1471.3 ± 1.3 m/s
same,speed of sound,"288.15 K, m1 = 0.03",1473.6 ± 1.3 m/s
same,speed of sound,"288.15 K, m1 = 0.04",1475.8 ± 1.3 m/s
same,mass density,"288.15 K, m1 = 0.01",1001.07 ± 2 kg/m3
same,mass density,"288.15 K, m1 = 0.02",1001.64 ± 2 kg/m3
same,mass density,"288.15 K, m1 = 0.03",1002.22 ± 2 kg/m3
same,mass density,"288.15 K, m1 = 0.04",1002.83 ± 2 kg/m3
same,speed of sound,"293.15 K, m1 = 0.01",1484.9 ± 1.3 m/s
same,speed of sound,"293.15 K, m1 = 0.02",1487.1 ± 1.3 m/s
same,speed of sound,"293.15 K, m1 = 0.03",1489.1 ± 1.3 m/s
same,speed of sound,"293.15 K, m1 = 0.04",1491.3 ± 1.3 m/s
same,mass density,"293.15 K, m1 = 0.01",1000.16 ± 2 kg/m3
same,mass density,"293.15 K, m1 = 0.02",1000.72 ± 2 kg/m3
same,mass density,"293.15 K, m1 = 0.03",1001.29 ± 2 kg/m3
same,mass density,"293.15 K, m1 = 0.04",1001.88 ± 2 kg/m3
same,speed of sound,"298.15 K, m1 = 0.01",1498.9 ± 1.3 m/s
same,speed of sound,"298.15 K, m1 = 0.02",1500.9 ± 1.3 m/s
same,speed of sound,"298.15 K, m1 = 0.03",1502.8 ± 1.3 m/s
same,speed of sound,"298.15 K, m1 = 0.04",1504.7 ± 1.3 m/s
same,mass density,"298.15 K, m1 = 0.01",998.97 ± 2 kg/m3
same,mass density,"298.15 K, m1 = 0.02",999.53 ± 2 kg/m3
same,mass density,"298.15 K, m1 = 0.03",1000.09 ± 2 kg/m3
same,mass density,"298.15 K, m1 = 0.04",1000.67 ± 2 kg/m3
same,speed of sound,"303.15 K, m1 = 0.01",1511.1 ± 1.3 m/s
same,speed of sound,"303.15 K, m1 = 0.02",1512.9 ± 1.3 m/s
same,speed of sound,"303.15 K, m1 = 0.03",1514.5 ± 1.3 m/s
same,speed of sound,"303.15 K, m1 = 0.04",1516.3 ± 1.3 m/s
same,mass density,"303.15 K, m1 = 0.01",997.53 ± 2 kg/m3
same,mass density,"303.15 K, m1 = 0.02",998.07 ± 2 kg/m3
same,mass density,"303.15 K, m1 = 0.03",998.61 ± 2 kg/m3
same,mass density,"303.15 K, m1 = 0.04",999.19 ± 2 kg/m3
same,speed of sound,"308.15 K, m1 = 0.01",1521.2 ± 1.3 m/s
same,speed of sound,"308.15 K, m1 = 0.02",1522.9 ± 1.3 m/s
same,speed of sound,"308.15 K, m1 = 0.03",1524.4 ± 1.3 m/s
same,speed of sound,"308.15 K, m1 = 0.04",1526 ± 1.3 m/s
same,mass density,"308.15 K, m1 = 0.01",995.95 ± 2 kg/m3
same,mass density,"308.15 K, m1 = 0.02",996.49 ± 2 kg/m3
same,mass density,"308.15 K, m1 = 0.03",997.02 ± 2 kg/m3
same,mass density,"308.15 K, m1 = 0.04",997.58 ± 2 kg/m3
